Assay results as given in patent publication US20230233565A1, “A TREATMENT APPROACH INVOLVING KIF18A INHIBITION FOR CHROMOSOMALLY UNSTABLE TUMORS” (UNIVERSITY OF VERMONT, priority 2020, published 2023).

Legend:
Format in all cases: cell-based
MDA-MB-231 cells [1] = experiment: Live imaging with siR-tubulin (spindle pole splitting); settings: UMK57 in KIF18A KD cells
Experimental: Cells were plated in a glass-bottom 24-well dish and treated with the indicated siRNA approximately 24 hours before imaging. Six hours before imaging, the cell culture media was replaced with CO2-independent media containing […] SiR-tubulin (Cytoskeleton). For conditions involving UMK57 or DMSO, the specified drug was added to the CO2-independent media with siR-tubulin. Cells were imaged every 2 minutes for 16-20 hours using a 40×0.75 NA objective (Nikon).

MDA-MB-231 cells [2] = experiment: Mitotic spindle morphology analysis (multipolar spindles, centrioles, fixed cells)
Experimental: (§1) For experiments involving siRNA knockdown followed by drug treatment, the indicated concentrations of paclitaxel (Selleck Chemicals, Houston, Tex.), nocodazole (Selleck Chemicals, Houston, Tex.), and/or monastrol (Selleck Chemicals, Houston, Tex.) were added to cells 24 h after siRNA treatment. Three hours after drug addition, cells were either fixed and stained for immunofluorescence imaging or imaged live in a glass-bottom 24-well dish. To compare the effects of paclitaxel treatment to the effects of KIF18A KD in MDA-MB-231 and MCF10A cell lines, 10 nM of paclitaxel was added to cells 24 h before fixing and staining for immunofluorescence imaging.
Cells were grown on glass coverslips and fixed using either −20° C. methanol or 1% paraformaldehyde in −20° C. methanol. Cells were blocked with 20% goat serum in antibody diluting buffer (Abdil—TBS, 1% BSA, 0.1% Triton X-100, and 0.1% sodium azide) and incubated with the following primary antibodies: mouse anti-α-tubulin (DM1α) 1:500 (Millipore Sigma, Burlington Mass.) for one hour at room temperature (RT), human anti-centromere antibody (ACA) 1:250 (Antibodies Incorporated) overnight at 4° C., rabbit anti-γ-tubulin 1:500 (Abcam, Cambridge, Mass.) for one hour at RT, mouse anti-γ-tubulin 1:500 for one hour at RT (Abcam, Cambridge, Mass.), rabbit anti-KIF18A 1:100 (Bethyl Laboratories, Montgomery, Tex.) at 4° C. overnight, mouse anti-centrin-1 1:500 (Santa Cruz Biotechnology) for one hour at RT, and rabbit KIF18B 1:2000 (Shin et al., “Biased Brownian Motion as a Mechanism to Facilitate Nanometer-scale Exploration of the Microtubule Plus End by a Kinesin-8,” Proc National Acad Sci 112:E3826-35 (2015), which is hereby incorporated by reference in its entirety) for one hour at RT. Secondary antibodies conjugated to Alexa Fluor 488, 594, and 647 (Molecular Probes, Eugene, Oreg.) were used at concentrations of 1:15000 for one hour at RT. Coverslips were mounted onto glass slides using Prolong Gold anti-fade mounting medium with DAPI (Molecular Probes, Eugene, Oreg.).
(§2) To analyze mitotic spindle morphology, cells were fixed and stained for γ-tubulin, α-tubulin, and centrin-1. Enough optical slices spaced 200 nm apart were captured to visualize the entire 3-D structure of the spindle. Spindles with three or more visible microtubule-organizing centers were classified as multipolar. Cells were considered to have fragmented pericentriolar material (PCM) if they had supernumerary poles observed via γ-tubulin staining but lacked centrioles (centrin-1 puncta) at one or more of the poles. Intercentriolar distance, or the distance in microns between two centrioles in a pair, was measured from the center of one centriole to the center of the adjacent centriole.

MDA-MB-231 cells [3] = experiment: Kinetic cell proliferation assay, siRNA plus UMK57 or DMSO
Experimental: HT29, LoVo, SW480, LS1034, HCC1806, HCT116, MCF10A, MDA-MB-231, and MDA-MB-468 cells were purchased from ATCC (Manassas, Va.). All cell lines were validated by STR DNA fingerprinting using the Promega GenePrint® 10 System according to manufacturer's instructions (Promega #B9510). HT29, LoVo, SW480, MDA-MB-231, and MDA-MB-468 cells were cultured in DMEM/F-12 medium (Gibco) supplemented with 10% FBS (Gibco) and 1% penicillin/streptomycin (pen/strep). LS1034 and HCC1806 cells were cultured in RPMI 1640 medium (Gibco) with 10% FBS and 1% pen/strep. […]
Cells were imaged in either a 96- or 24-well dish every two or four hours for up to five days using the Cytation 5 Cell Imaging Multi-Mode Reader (Biotek, Winooski, Vt.) driven by Gen5 software (Biotek, Winooski, Vt.). […] Between imaging reads, cells were incubated at 37° C. with 5% CO2 using the Biospa 8 Automated Incubator (Biotek, Winooski, Vt.). […] To determine rates of cell proliferation, the fold change in cells/mm^2 between the first and last reads of each well were calculated and normalized to the control for each experiment. […] For cytotoxicity assays, CellTox™ Green Dye (Promega, Madison, Wis.) was added to cell media prior to imaging, and the number of cells/mm^2 was recorded for both GFP and brightfield channels. […]

MDA-MB-231 cells [4] = experiment: Mitotic index from fixed-cell images; settings: 500 nM UMK57 in KIF18A-depleted cells, versus DMSO
Experimental: as §1
(§3) To measure the length of mitosis, live cells were imaged every two minutes for 16-20 hours using differential interference contrast (DIC) microscopy. The time between nuclear envelope breakdown (NEB) and anaphase onset (AO) was used to indicate the time a cell spent in mitosis. Mitotic index was measured using fixed-cell images by counting the number of mitotic cells divided by the total number of cells. All mitotic index fields were taken with a 40×objective. An unpaired t-test was used to determine statistical significance between control and KIF18A KD conditions for each cell line.

diploid MCF10A cells [5] = experiment: Mitotic spindle morphology analysis (multipolar spindles, fixed cells); settings: 10 nM paclitaxel, 24 h
Experimental: as §1, §2

diploid MCF10A cells [6] = experiment: Mitotic index from fixed-cell images; settings: 10 nM paclitaxel, 24 h
Experimental: as §1, §3

How did the spindle pole splitting (MDA-MB-231 cells [1]) turn out when Cc1ccc(-c2csc3ncnc(N4CCCC4)c23)cc1 [UMK57] was run?
The spindle pole splitting was “increased spindle pole splitting”.

What about the “percentage of multipolar spindles” value (MDA-MB-231 cells [2]; 500 nM UMK57 in KIF18A KD cells, versus DMSO) of the same compound?
Its value is “small but significant increase in multipolar spindles”.

What about the “chromosome alignment defects in bipolar spindles” value (MDA-MB-231 cells [2]; UMK57 in KIF18A KD cells) of the same compound?
The value was “without an obvious change in chromosome alignment defects”.

What about the proliferation (MDA-MB-231 cells [3]; 500 nM UMK57 in KIF18A-depleted cells, versus DMSO) of the same compound?
The proliferation was “decreased proliferation”.

And the proliferation (MDA-MB-231 cells [3]; 500 nM UMK57 in control siRNA-treated cells)?
The proliferation was “no impact on the proliferation”.

And the mitotic index (MDA-MB-231 cells [4])?
Its mitotic index is “increased”.

How did the “multipolar spindles in KIF18A KD cells” value (MDA-MB-231 cells [2]; 5 μM nocodazole for 3 h, versus DMSO) turn out when COC(=O)Nc1nc2ccc(C(=O)c3cccs3)cc2[nH]1 [nocodazole] was run?
The value was “significantly fewer multipolar spindles”.

CC(=O)O[C@H]1C(=O)[C@@]2(C)[C@H]([C@H](OC(=O)c3ccccc3)[C@]3(O)C[C@H](OC(=O)[C@H](O)[C@@H](NC(=O)c4ccccc4)c4ccccc4)C(C)=C1C3(C)C)[C@]1(OC(C)=O)CO[C@@H]1C[C@@H]2O [paclitaxel] was tested. Which “multipolar spindles in KIF18A KD cells” value (MDA-MB-231 cells [2]; 20 nM paclitaxel for 3 h, versus DMSO) did it give?
The value was “significantly fewer multipolar spindles”.

What about the “mitotic defects (mitotic index, multipolar spindles)” value (MDA-MB-231 cells [2]; MDA-MB-231, KIF18A KD versus 10 nM paclitaxel (24 h)) of the same compound?
Its value is “produced similar mitotic defects”.

And the multipolar spindles (diploid MCF10A cells [5])?
Its multipolar spindles is “increased”.

What about the mitotic index (diploid MCF10A cells [6]) of the same compound?
Its mitotic index is “increased the mitotic index”.
